Usually IC50 stands for the concentration at which inhibition is half-maximal. One may read the melting point as the temperature of the solid-liquid transition.

Read-outs that look alike come from different tables or passages of the source.

The text below walks through data of patent publication US7923465B2, “Cannabinoid receptor ligands, pharmaceutical compositions containing them, and process for their preparation” (priority 2005, dated 2011).

In data set [1] the test system is voluntary ethanol intake. The conditions noted are these: mice; cited from earlier work.
Data set [2] has as its system voluntary ethanol intake. The conditions noted are these: rats; cited from earlier work.
Data set [3] addresses T1, hCB1 (Homo sapiens, UniProt P21554). The experiment in a line: Agonism of CB1 receptors expressed in CHO cells, forskolin cAMP assay (Protocol IX.2). The format is cell-based. Also on record: expressed in transfected cells; host or cells: CHO (h-CB1/CHO, G418-selected). As for the experimental part: IX. Assay for Determining Agonist and Antagonist Activity to CB1 and CB2 Receptors
2. Agonism of CB1/CB2 Receptors Expressed in CHO Cells
h-CB1/CHO or h-CB2/CHO cells were grown in HAM's F12 DMEM medium (Sigma) with 10% FBS (Hyclone), 1% penicillin-streptomycin solution and 400 μg/ml of G418 (Sigma). 5000 cells were seeded per well in a 96 well plate and incubated for 24 hours at 37° C. in 5% CO2. On the day of assay, cells were washed with warm Krebs Buffer containing 0.1% fatty acid free (FAF) BSA (Sigma) and re-suspended in the same buffer containing 1 mM IBMX. […] At the end of incubation, cells were lysed using lysis reagent from the cAMP estimation kit and cAMP was quantitated by chemiluminescence method described in the manufacturer's instructions (DiscoveRX). EC50 values were calculated from dose response curves by nonlinear regression analysis using PRISM software.
A general note: cAMP levels reflect the balance of adenylyl cyclase and phosphodiesterase activity.

Another data set deals with CB2 receptor. As to the kind of experiment: Rat CB2 receptor binding using spleen membrane, [3H]CP55,940 displacement (Protocol III). As for the experimental part:
III. In Vitro Protocol for Rat CB2 Receptor Binding Using Spleen Membrane
In this assay, [^3H]CP55,940 was used to bind the CB2 receptor present in a rat spleen membrane preparation which can be displaced by unlabeled ligands having affinity to the CB2 receptor.
The assay was performed according to the modified method of Rinaldi-Carmona et al., 1998 (JPET 284: 644-650). The total reaction mixture ([…]) contained Tris-BSA buffer (50 mM Tris, pH 7.4 with 1.5% BSA) or unlabeled SR144528 (N-[(1S)-endo-1,3,3-trimethyl bicyclo[2.2.1]heptan-2-yl]-5-(4-chloro-3-methylphenyl)-1-(4-methyl-benzyl)-pyrazole-3-carboxamide]) ([…]) or test samples (300 nM), [^3H]CP55,940 (1 nM) and […] of rat […] membrane. The non-specific binding was defined by […] of SR144528. The assay mixture was incubated at 37° C. for 1 hour. The reaction was then stopped by rapid filtration under vacuum using a Whatman GF/B-96 micro filter plate. A scintillation cocktail was added and radioactive counts were measured using a Topcount beta scintillation counter.
The standard and test sample dilutions were made in an assay buffer containing either ethanol or DMSO at a final concentration of 1%.
The percent (%) displacement by a test ligand was calculated by comparing the specific bound values.

Data set [4] addresses T1, hCB1. The experiment in a line: Antagonism of CB1 receptors expressed in CHO cells, cAMP assay against CP 55,940 (Protocol IX.1). The format is cell-based. On the set-up: expressed in transfected cells; host or cells: CHO (h-CB1/CHO, G418-selected). The conditions noted are these: CHO, read-out: hCB1 Antagonism.
In data set [5] the target is T2, CB1 (Rattus norvegicus, UniProt P20272). The experiment in a line: GTPγS binding assay, CB1 functional assay in rat cerebellar membrane (Protocol VIII). The format is biochemical. On the set-up: 10 μg rat cerebellum membrane; from tissue; host or cells: rat cerebellum membrane, prepared in-house. The conditions noted are these: for activation at 0.3 µM: 1 h, GTPγS binding over basal, rat cerebellar membrane, tested at 300 nM, read-out: Per Se % Stimulation; for inhibition at 0.3 µM: GTPγS binding, tested at 300 nM in presence of 1 μM WIN 55,212-2, read-out: % Inhibition of WIN-55212-2 induced stimulation. The gist of the method: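 Rat cerebellar membranes (10 μg) incubated 1 h at 30 °C with 0.2 nM [35S]GTPγS, 50 μM GDP, and compound at 1 μM or 300 nM, alone or with 1 μM WIN 55,212-2, in Tris/MgCl2/EGTA/NaCl pH 7.4. Filter-bound radioactivity counted; percent stimulation calculated against basal specific binding (nonspecific defined by 10 μM GTPγS).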

A further data set deals with neuropathic hyperalgesia. The experiment in a line: Neuropathic hyperalgesia model, partial sciatic nerve ligation (Seltzer's model, Protocol V). The format is in vivo. The following applies: rat, 1 mg/kg I.P., paw pressure, 0.5 and 1 hour postdose. As for the experimental part: V. Neuropathic Hyperalgesia Model—Partial Sciatic Nerve Ligation (Seltzer's Model)
This protocol was performed with the compound of Example 294 at 0.01, 0.1, 0.3, and 1 mg/kg (I.P.), and gabapentin at 100 mg/kg (I.P.) to evaluate the ability of the compound of Example 294 in reducing neuropathic hyperalgesia. The Seltzer method is also generally described in Seltzer et al., Pain 1990, 43:205-18. • 1. Rats were anesthetised using ketamine/xylazine (40/5 mg/kg/ml, i.p.). After induction of anaesthesia, the left thigh was shaved and cleaned. • 2. The left sciatic nerve was exposed at mid thigh level through a small incision. • 3. The nerve was cleared from adhering muscle tissue. • 4. One half of the nerve thickness was tightly ligated just after the bifurcation of common sciatic nerve using 7.0 silk sutures. • 5. The wound was closed with muscle and skin sutures and povidone was applied. • 6. […] Paw withdrawal thresholds were recorded for both the ipsilateral and the contralateral hind paws before (predose) and 0.5 and 1 hour after drug or vehicle administration (postdose). • 9. […]
The threshold withdrawal latency (naïve, predose & postdose) values are represented as mean±SEM. […] The percent reversal of neuropathic mechanical hyperalgesia was calculated from withdrawal threshold latency values according to the following formula: […]

The target in data set [6] is T2, CB1. The experiment in a line: Rat CB1 receptor binding using brain membrane, [3H]SR141716A displacement (Protocol I). Also on record: CB1 receptor present in a rat brain membrane preparation; from tissue; host or cells: rat brain membrane; inhibition: dose or concentration left out as unconfirmed. The following applies: 1 h, read-out: % Displacement Protocol I, rat brain membrane, [3H]SR141716A displacement.

T2 sequence (P20272 whole entry): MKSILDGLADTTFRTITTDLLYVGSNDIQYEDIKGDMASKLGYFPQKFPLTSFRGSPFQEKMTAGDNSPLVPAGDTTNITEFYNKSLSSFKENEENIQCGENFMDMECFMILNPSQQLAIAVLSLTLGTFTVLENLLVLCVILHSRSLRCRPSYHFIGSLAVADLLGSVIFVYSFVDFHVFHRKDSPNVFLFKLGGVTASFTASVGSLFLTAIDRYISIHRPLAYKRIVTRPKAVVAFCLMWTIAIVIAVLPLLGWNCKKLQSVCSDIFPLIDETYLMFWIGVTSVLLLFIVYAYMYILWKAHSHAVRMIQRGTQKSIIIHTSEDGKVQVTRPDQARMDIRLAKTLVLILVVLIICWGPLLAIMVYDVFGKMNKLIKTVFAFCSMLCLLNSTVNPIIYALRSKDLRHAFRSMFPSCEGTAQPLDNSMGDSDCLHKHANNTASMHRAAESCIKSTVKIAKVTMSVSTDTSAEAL
T1 sequence (P21554 whole entry): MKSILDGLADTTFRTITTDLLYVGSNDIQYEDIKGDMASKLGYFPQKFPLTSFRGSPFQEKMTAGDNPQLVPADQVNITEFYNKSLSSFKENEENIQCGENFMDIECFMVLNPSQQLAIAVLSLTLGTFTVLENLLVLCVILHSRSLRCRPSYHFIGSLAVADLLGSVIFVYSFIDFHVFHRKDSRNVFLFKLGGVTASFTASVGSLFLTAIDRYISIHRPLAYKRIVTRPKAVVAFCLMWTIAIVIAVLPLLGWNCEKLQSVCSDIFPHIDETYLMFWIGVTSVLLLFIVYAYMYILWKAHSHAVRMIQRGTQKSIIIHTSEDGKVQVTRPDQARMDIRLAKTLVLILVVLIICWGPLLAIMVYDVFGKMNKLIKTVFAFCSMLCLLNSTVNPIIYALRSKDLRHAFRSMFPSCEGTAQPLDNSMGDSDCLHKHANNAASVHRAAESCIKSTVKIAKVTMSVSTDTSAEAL

Regarding `Cc1c(C(=O)NN2CCCCC2)nn(-c2ccc(Cl)cc2Cl)c1-c1ccc(Cl)cc1` [SR-141716A, 5-(4-chlorophenyl)-1-(2,4-dichlorophenyl)-4-methyl-N-(1-piperidyl)pyrazole-3-carboxamide], the voluntary ethanol intake entry in the data set with voluntary ethanol intake [1] and in the data set on voluntary ethanol intake [2] was “block voluntary ethanol intake” in each case.
For the compound `CC(C)(NC(=O)c1nn(-c2ccc(Cl)cc2)c2c1C1CC3CC(C1)CC2C3)c1ccccc1` [Example 119], the melting point is 181 °C. The compound further had an IC50 against hCB1 [3] of 38.3 nM. In addition, in the data set with CB2 receptor, the “% Displacement Protocol III” value is recorded as 85.2%. In addition, the inhibition at 10 µM on hCB1 [4] came to 18.4%. Moreover, on CB1 [5], the activation at 0.3 µM worked out at 46% and the inhibition at 0.3 µM is 38.9%.
Compound `CC(C)(NC(=O)c1nn(-c2ccc(F)cc2F)c2c1C1CCC2C1)c1ccccc1` (stereo not drawn) [Example 294, N(3)-(1-Methyl-1-phenylethyl)-1-(2,4-difluorophenyl)-4,5,6,7-tetrahydro-1H-4,7-methano-indazole-3-carboxamide] displayed a melting point of 105 °C. Moreover, on CB1 [5], the activation at 0.3 µM is 103% and the inhibition at 0.3 µM turned out to be 9.8%. Besides, the “reversal of neuropathic hyperalgesia” value with neuropathic hyperalgesia is on record as “significantly reversed neuropathic hyperalgesia”. Besides, the inhibition on CB1 [6] was 111%.
Turning to `C[C@H](NC(=O)c1nn(-c2ccc(Cl)cc2)c2c1C1CC3CC(C1)CC2C3)c1ccccc1` [Example 117], the melting point lay in the range of 85 to 86 °C. The compound further had an IC50 against hCB1 [3] of 18.9 nM. Also, in the data set with CB2 receptor, the “% Displacement Protocol III” value amounted to 59.8%. Further, at CB1 [5], the activation at 0.3 µM is 4.4% and the inhibition at 0.3 µM was determined as 55.7%.
